Results as given in patent US9862676B2, “Hydroxamic acid derivative or salt thereof” (TOYAMA CHEMICAL CO., LTD., priority 2013, dated 2018).
In brackets after ≈: the same amount, converted by molar mass.

Assays:
Type in all cases: cell-based
[1] = test system: Escherichia coli ATCC25922 strain; assay: Antibacterial activity, MIC by broth microdilution (CLSI)
Protocol: (§1) The minimum inhibitory concentration (MIC) was measured according to the CLSI (Clinical and Laboratory Standards Institute) standard method using a broth microdilution method given below. The bacteria used were a Pseudomonas aeruginosa ATCC27853 strain, an Escherichia coli ATCC25922 strain and a Klebsiella pneumoniae ATCC13883 strain. Test bacterial cells of each strain cultured overnight in a Mueller-Hinton agar medium were scraped off and suspended at the McFarland 0.5 standard, and this suspension was diluted 10-fold to prepare an inoculum solution. The inoculum solution (0.005 mL) was inoculated to a cation-adjusted Mueller-Hinton medium containing each test compound and cultured at 35° C. for 16 to 20 hours. The minimum drug concentration at which bacterial growth was not visible to the naked eye was defined as MIC.

[2] = Test on inhibition of Vero cell growth (XTT); settings: African green monkey, Vero cells, 3 days culture, read-out: CC50 (concentration inhibiting 50% of cell growth)
Protocol: Each test compound was dissolved in dimethyl sulfoxide, adjusted to each concentration using E'MEM, and then dispensed at 0.1 mL/well to 96-well microplates. The Vero cell suspension was prepared at 3×10^4 cells/mL using E'MEM supplemented with 20% FBS, inoculated thereto at 0.1 mL/well, and cultured at 37° C. for 3 days under 5% CO2. At the completion of the culture, PBS supplemented with 1 mg/mL 2,3-bis-(2-methoxy-4-nitro-5-sulfophenyl)-5-((phenylamino)carbonyl)-2H-tetrazolium inner salt monosodium salt (XTT) and 25 μM phenazine methosulfate (PMS) was prepared and added thereto at 50 μL/well. Approximately 2 hours later, the absorbance at 450 nm was measured using a microplate reader.

[3] = test system: Pseudomonas aeruginosa ATCC27853 strain; assay: Antibacterial activity, MIC by broth microdilution (CLSI)
Protocol: as §1

CNC(=O)[C@@](C)(C(=O)NO)N(C)C(=O)c1ccc(C#Cc2ccc([C@H](C)O)cc2)cc1 [Example 38, (2S)—N-hydroxy-2-((4-((4-((1S)-1-hydroxyethyl)phenyl)ethynyl)benzoyl)(methyl)amino)-N′,2-dimethyl-malonamide]
MIC [1]: 0.25 µg/mL (≈ 0.59 µM)

CNC(=O)[C@@](C)(C(=O)NO)N(C)C(=O)c1ccc(C#Cc2ccc(C(CO)OC)cc2)cc1 (stereo partly drawn) [Example 9, (2S)—N-hydroxy-2-((4-((4-(2-hydroxy-1-methoxyethyl)phenyl)ethynyl)benzoyl)(methyl)amino)-N′,2-dimethyl-malonamide]
MIC [1]: 0.5 µg/mL (≈ 1.1 µM)
CC50 at 3 days [2]: ≥ 100 µg/mL

CNC(=O)[C@@](C)(C(=O)NO)N(C)C(=O)c1ccc(C#Cc2ccc(C(CO)CO)cc2)cc1 [Example 6, (2S)—N-hydroxy-2-((4-((4-(2-hydroxy-1-(hydroxymethyl)ethyl)phenyl)ethynyl)benzoyl)(methyl)amino)-N′,2-dimethyl-malonamide]
CC50 at 3 days [2]: ≥ 100 µg/mL

CNC(=O)[C@@](C)(C(=O)NO)N(C)C(=O)c1ccc(C#Cc2ccc(CC(CO)CO)cc2)cc1 [Example 18, (2S)—N-hydroxy-2-((4-((4-(3-hydroxy-2-(hydroxymethyl)propyl)phenyl)ethynyl)benzoyl)(methyl)amino)-N′,2-dimethyl-malonamide]
MIC [3]: 1 µg/mL (≈ 2.14 µM)

CNC(=O)[C@@](C)(C(=O)NO)N(C)C(=O)c1ccc(C#Cc2ccc(C(O)COCCO)c(F)c2)cc1 (stereo partly drawn) [Example 27, (2S)-2-((4-((3-fluoro-4-(1-hydroxy-2-(2-hydroxyethoxy)ethyl)phenyl)ethynyl)benzoyl)(methyl)amino)-N-hydroxy-N′,2-dimethylmalonamide]
MIC [3]: 1 µg/mL (≈ 1.99 µM)

CNC(=O)[C@@](C)(C(=O)NO)N(C)C(=O)c1ccc(C#Cc2ccc(C(C)OCCO)cc2)cc1 (stereo partly drawn) [Example 21, (2S)—N-hydroxy-2-((4-((4-(1-(2-hydroxyethoxy)ethyl)phenyl)ethynyl)benzoyl)(methyl)amino)-N′,2-dimethyl-malonamide]
MIC [1]: 0.5 µg/mL (≈ 1.07 µM)

CNC(=O)[C@@](C)(C(=O)NO)N(C)C(=O)c1ccc(C#Cc2ccc(COC(CO)CO)cc2)cc1 [Example 5, (2S)—N-hydroxy-2-((4-((4-((2-hydroxy-1-(hydroxymethyl)ethoxy)methyl)phenyl)ethynyl)benzoyl)(methyl)amino)-N′,2-dimethylmalonamide]
CC50 at 3 days [2]: ≥ 100 µg/mL

CNC(=O)[C@@](C)(C(=O)NO)N(C)C(=O)c1ccc(C#Cc2ccc([C@@H](O)CO)c(F)c2)cc1 [Example 26, (2S)-2-((4-((4-(1,2-dihydroxyethyl)-3-fluorophenyl)ethynyl)benzoyl)(methyl)amino)-N-hydroxy-N′,2-dimethyl-malonamide]
MIC [3]: 1 µg/mL (≈ 2.19 µM)

CNC(=O)[C@@](C)(C(=O)NO)N(C)C(=O)c1ccc(C#Cc2ccc(COCC(O)CO)cc2)cc1 (stereo partly drawn) [Example 2, (2S)-2-((4-((4-((2,3-dihydroxypropoxy)methyl)phenyl)ethynyl)benzoyl)(methyl)amino)-N-hydroxy-N′,2-dimethylmalonamide]
MIC [3]: 1 µg/mL (≈ 2.07 µM)
CC50 at 3 days [2]: ≥ 100 µg/mL

CNC(=O)[C@@](C)(C(=O)NO)N(C)C(=O)c1ccc(C#Cc2ccc(CC(O)CO)cc2)cc1 (stereo partly drawn) [Example 15, (2S)-2-((4-((4-(2,3-dihydroxypropyl)phenyl)ethynyl)benzoyl)(methyl)amino)-N-hydroxy-N′,2-dimethylmalonamide]
MIC [3]: 1 µg/mL (≈ 2.21 µM)

CNC(=O)[C@@](C)(C(=O)NO)N(C)C(=O)c1ccc(C#Cc2ccc([C@@H](O)CCO)cc2)cc1 [Example 32, (2S)-2-((4-((4-((1S)-1,3-dihydroxypropyl)phenyl)ethynyl)benzoyl)(methyl)amino)-N-hydroxy-N′,2-dimethyl-malonamide]
MIC [3]: 1 µg/mL (≈ 2.21 µM)
MIC [1]: 0.5 µg/mL (≈ 1.1 µM)

CNC(=O)[C@@](C)(C(=O)NO)N(C)C(=O)c1ccc(C#Cc2ccc(C(O)COCCO)cc2)cc1 (stereo partly drawn) [Example 22, (2S)—N-hydroxy-2-((4-((4-(1-hydroxy-2-(2-hydroxyethoxy)ethyl)phenyl)ethynyl)benzoyl)(methyl)amino)-N′,2-dimethyl-malonamide]
MIC [3]: 1 µg/mL (≈ 2.07 µM)
CC50 at 3 days [2]: ≥ 100 µg/mL
